Experimental data reported in patent US11667631B2, “FGFR4 inhibitor, preparation method therefor, and applications thereof” (Jiangsu Hansoh Pharmaceutical Group Co., Ltd., priority 2016, dated 2023).
Like-named read-outs stand apart in the source and are kept apart here.

Assays:
Hep 3B cells = experiment: Inhibition of Hep 3B cell proliferation (CellTiter-Glo); type: cell-based
Method: In this experiment, the inhibitory effect of the compounds on Hep 3B cell proliferation was tested by a CellTiter-Glo method, and the half maximal inhibitory concentration (IC50) of the compounds on the activity of cell proliferation was determined.
1) A 96-well cell culture plate was seeded with 50˜100 μL of Hep 3B cell suspension at a density of 1˜5×10^4 cells/ml. The culture plate was incubated in an incubator for 16˜24 hours (37° C., 5% CO2).
(§1) 2) Different concentrations of the test compound in a gradient dilution were added to the cells in the culture plate. The culture plate was incubated in an incubator for 72 hours (37° C., 5% CO2).
(§2) 3) 50˜100 μL of CellTiter-Glo reagent were added to each well. Then, the culture plate was shaken or left to stand for 5˜30 minutes at room temperature.
(§3) 4) The chemiluminescence signal values of each plate were determined by a microplate reader.
(§4) 5) The inhibition rates were calculated according to the chemiluminescence signal values.

HuH-7 cells = experiment: Inhibition of HuH-7 cell proliferation (CellTiter-Glo); type: cell-based; details: Homo sapiens, Huh-7, 72 h, read-out: HuH-7 IC50
Method: In this experiment, the inhibitory effect of the compounds on HuH-7 cell proliferation was tested by a CellTiter-Glo method, and the half maximal inhibitory concentration (IC50) of the compounds on the activity of cell proliferation was determined.
1) A 96-well cell culture plate was seeded with 50˜100 μL of HuH-7 cell suspension at a density of 1˜5×10^4 cells/ml. The culture plate was incubated in an incubator for 16˜24 hours (37° C., 5% CO2).
as §1
3) 50˜100 μL of CellTiter-Glo reagent was added to each well. Then, the culture plate was shaken or left to stand for 5˜30 minutes at room temperature.
as §3, §4
(§5) 6) The IC50 of the compound was obtained by curve fitting according to the inhibition rates at different concentrations, and the cell activity of the specific example compounds is shown in Table 2.

SK-HEP-1 cells = experiment: Inhibition of SK-HEP-1 cell proliferation (CellTiter-Glo); type: cell-based; details: Homo sapiens, SK-HEP1, 72 h, read-out: SK-HEP-1 IC50
Method: In this experiment, the inhibitory effect of the compounds on SK-HEP-1 cell proliferation was tested by a CellTiter-Glo method, and the half maximal inhibitory concentration (IC50) of the compounds on the activity of cell proliferation was determined.
1) A 96-well cell culture plate was seeded with 50˜100 μL of SK-HEP-1 cell suspension at a density of 1˜5×10^4 cells/ml. The culture plate was incubated in an incubator for 16˜24 hours (37° C., 5% CO2).
as §1, §2, §3, §4, §5

[1] = Pharmacokinetic (PK) analysis in rats; type: in vivo, Sprague Dawley (SD) rats; details: SD rats, single intragastric administration, 5 mg/kg; for Peak Time tmax: (sampling in hours); for AUC(0-t) / AUC(0-inf) / half-life / MRT / Cmax: Sprague-Dawley, rat, plasma, po; for AUC(0-t): read-out: Area Under Curve AUC0-t; for AUC(0-inf): read-out: Area Under Curve AUC0-∞; for half-life: read-out: Half-Time t1/2 (converted); for MRT: read-out: Mean Residence Time MRT; for Cmax: read-out: Plasma Concentration Cmax
Method: 1) 0.2 ml of intravenous blood was collected and placed in a K2EDTA test tube. The blood was centrifuged at room temperature at the speed of 1000˜3000×g for 5˜20 minutes to isolate the plasma, which was then stored at −80° C.
2) 160 μL of acetonitrile was added to 40 μL of plasma sample for precipitation, and then the mixture was centrifuged at the speed of 500˜2000×g for 5˜20 minutes.
3) 100 μL of treated solution was taken, and the concentration of the test compound was analyzed by LC/MS/MS. The LC/MS/MS analytical instrument was AB Sciex API 4000. • Liquid chromatography analysis: • Condition of Liquid chromatography: Shimadzu LC-20AD pump • Chromatographic column: phenomenex Gemiu 5 um C18 50×4.6 mm • Mobile phase: Solution A is 0.1% formic acid aqueous solution, and Solution B is acetonitrile • Flow rate: 0.8 mL/min • Elution time: 0-3.5 minutes, the eluent was used as follows: […]

FGFR1 kinase = FGFR1 kinase (Homo sapiens (Human), UniProt P11362); experiment: Enzymologic experiment of FGFR1 (TR-FRET); type: biochemical; details: FGFR1 kinase activity
Method: In this experiment, the inhibitory effect of the compounds on FGFR1 kinase activity was tested by a fluorescence resonance energy transfer (TR-FRET) method, and the half maximal inhibitory concentration (IC50) of the compounds on the FGFR1 kinase activity was determined.
1) 1˜5 μL of FGFR1 enzyme solution was added to a 384-well plate, and the final concentration of the enzyme was 0.1˜5 nM.
2) 1˜5 μL of diluted solution in gradient of the compound was added.
3) 1˜5 μL of a substrate mixture containing substrate polypeptide with a final concentration of 5˜50 nM and ATP with a final concentration of 10˜200 μM was added.
4) The mixture was incubated for 0.5˜3 hours at room temperature.
5) 10 μL of EDTA and a test solution comprising labeled antibody were added, and the plate was incubated for 1 hour at room temperature.
6) The fluorescence signal values of each plate were determined by a microplate reader at 665 nm.
7) The inhibition rates were calculated according to the fluorescence signal values.
8) The IC50 of the compound was obtained by curve fitting according to the inhibition rates at different concentrations, and the enzymatic activity of the specific example compounds is shown in Table 1.

[2] = Homo sapiens, Hep3B, 72 h, read-out: Hep 3B IC50, Hep 3B cell proliferation, 72 hours, CellTiter-Glo

Chain of FGFR1 kinase (P11362 22-822): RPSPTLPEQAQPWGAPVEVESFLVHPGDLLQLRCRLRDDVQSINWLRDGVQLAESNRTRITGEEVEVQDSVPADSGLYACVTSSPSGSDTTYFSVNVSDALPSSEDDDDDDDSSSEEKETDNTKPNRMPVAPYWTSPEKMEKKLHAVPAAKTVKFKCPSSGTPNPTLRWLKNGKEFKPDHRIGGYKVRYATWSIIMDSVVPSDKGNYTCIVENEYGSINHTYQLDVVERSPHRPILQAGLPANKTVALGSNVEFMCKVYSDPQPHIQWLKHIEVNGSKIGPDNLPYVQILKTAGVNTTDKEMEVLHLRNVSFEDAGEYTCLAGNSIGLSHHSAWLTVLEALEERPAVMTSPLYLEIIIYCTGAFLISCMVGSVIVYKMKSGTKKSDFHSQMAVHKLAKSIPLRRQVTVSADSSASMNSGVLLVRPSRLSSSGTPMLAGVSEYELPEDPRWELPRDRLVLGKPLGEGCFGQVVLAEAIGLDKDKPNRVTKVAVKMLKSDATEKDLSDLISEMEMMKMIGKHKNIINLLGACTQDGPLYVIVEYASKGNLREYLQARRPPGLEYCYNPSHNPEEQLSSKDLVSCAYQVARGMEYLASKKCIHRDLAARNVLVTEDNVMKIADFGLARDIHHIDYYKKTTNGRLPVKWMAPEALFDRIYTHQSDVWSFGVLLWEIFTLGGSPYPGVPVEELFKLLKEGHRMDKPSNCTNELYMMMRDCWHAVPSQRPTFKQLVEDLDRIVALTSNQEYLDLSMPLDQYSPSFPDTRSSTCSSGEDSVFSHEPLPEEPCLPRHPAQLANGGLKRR

Row | SMILES | IC50 (Hep 3B cells; [2]) [nM] | IC50 (HuH-7 cells) [nM] | IC50 (SK-HEP-1 cells) [nM] | Peak Time tmax [1] [h] | AUC(0-t) [1] [ng·h/mL] | AUC(0-inf) [1] [ng·h/mL] | half-life [1] [h] | MRT [1] [h] | Cmax [1] [ng/mL] | IC50 (FGFR1 kinase) [nM] | IC50 (Hep 3B cells; read-out: Hep 3B IC50, Hep 3B cell proliferation, 72 hours, CellTiter-Glo) [nM]
1 | COC1CCN(c2cc(NC(=O)N3CCCc4cc(CN5CCOCC5=O)c(C=O)nc43)ncc2C#N)C1 (centres unmarked) [Example 4, N-(5-Cyano-4-(3-methoxypyrrolidin-1-yl)pyridin-2-yl)-7-formyl-6-((3-carbonylmorpholino)methyl)-3,4-dihydro-1,8-naphthyridin-1(2H)-carboxamide] | 2.5 | 18.4 | > 10000 | 2 | 8740 | 8740 | 0.61 | 3.07 | 3370 | > 10000 | –
2 | COCC1(Nc2cc(NC(=O)N3CCCc4cc(CN5CCOCC5=O)c(C=O)nc43)ncc2C#N)CC1 [Example 11] | 8.4 | 12.4 | > 10000 | 2 | 3890 | 3960 | 1.16 | 2.68 | 1540 | > 10000 | –
3 | COCCSc1cc(NC(=O)N2CCCc3cc(CN4CCOCC4=O)c(C=O)nc32)ncc1C#N [Example 13, N-(5-Cyano-4-((2-methoxyethyl)thio)pyridin-2-yl)-7-formyl-6-((3-carbonylmorpholino)methyl)-3,4-dihydro-1,8-naphthyridin-1(2H)-carboxamide] | 20.8 | 32.3 | > 10000 | 2 | 3510 | 3570 | 1.16 | 2.8 | 1200 | > 10000 | –
4 | CO[C@@H]1CCCC1Oc1cc(NC(=O)N2CCCc3cc(CN4CCOCC4=O)c(C=O)nc32)ncc1C#N (stereo partly drawn) [Example 16, N-(5-Cyano-4-(((trans)-2-methoxycyclopentyl)oxy)pyridin-2-yl)-7-formyl-6-((3-carbonylmorpholino)methyl)-3,4-dihydro-1,8-naphthyridin-1(2H)-carboxamide] | 10.5 | 13.2 | > 10000 | 2 | 5520 | 5610 | 1.02 | 2.96 | 1600 | > 10000 | –
5 | CO[C@@H]1CCN(c2cc(NC(=O)N3CCCc4cc(CN5C(=O)OC[C@@H]5C)c(C=O)nc43)ncc2C#N)C1 [Example 38, N-(5-Cyano-4-((R)-3-methoxypyrrolidin-1-yl)pyridin-2-yl)-7-formyl-6-(((S)-4-methyl-2-carbonyloxazolidin-3-yl)methyl)-3,4-dihydro-1,8-naphthyridin-1(2H)-carboxamide] | 13.3 | 11.8 | > 10000 | 2 | 2400 | 2540 | 1.38 | 3.91 | 2660 | > 10000 | –
6 | CO[C@H]1CCN(c2cc(NC(=O)N3CCCc4cc(CN5CCOC5=O)c(C=O)nc43)ncc2C#N)C1 [Example 40, (S)-N-(5-Cyano-4-(3-methoxypyrrolidin-1-yl)pyridin-2-yl)-7-formyl-6-((2-carbonyloxazolidin-3-yl)methyl)-3,4-dihydro-1,8-naphthyridin-1(2H)-carboxamide] | 38.7 | 29.6 | > 10000 | 2 | 1080 | 1100 | 1.05 | 3.36 | 1560 | > 10000 | –
7 | CO[C@@H]1CCN(c2cc(NC(=O)N3CCCc4cc(CN5CCOC5=O)c(C=O)nc43)ncc2C#N)C1 [Example 41, (R)-N-(5-Cyano-4-(3-methoxypyrrolidin-1-yl)pyridin-2-yl)-7-formyl-6-((2-carbonyloxazolidin-3-yl)methyl)-3,4-dihydro-1,8-naphthyridin-1(2H)-carboxamide] | 9.9 | 10.2 | > 10000 | 2 | 2880 | 2960 | 1.17 | 3.12 | 1920 | > 10000 | –
8 | CO[C@H]1CCN(c2cc(NC(=O)N3CCCc4cc(CN5CCOCC5=O)c(C=O)nc43)ncc2C#N)C1 [Example 51, (S)-N-(5-Cyano-4-(3-methoxypyrrolidin-1-yl)pyridin-2-yl)-7-formyl-6-((3-carbonylmorpholino)methyl)-3,4-dihydro-1,8-naphthyridin-1(2H)-carboxamide] | 25.1 | 27.5 | > 10000 | 2 | 3720 | 3730 | 1.15 | 3.84 | 1020 | > 10000 | –
9 | CO[C@@H]1CCC[C@H]1Nc1cc(NC(=O)N2CCCc3cc(CN4CCOCC4=O)c(C=O)nc32)ncc1C#N [Example 60, N-(5-Cyano-4-(((1R,2R)-2-methoxycyclopentyl)amino)pyridin-2-yl)-7-formyl-6-((3-carbonylmorpholino)methyl)-3,4-dihydro-1,8-naphthyridin-1(2H)-carboxamide] | 1 | 2.7 | > 10000 | 2 | 3770 | 3790 | 0.88 | 2.26 | 1300 | > 10000 | –
10 | CO[C@@H]1CCC1Oc1cc(NC(=O)N2CCCc3cc(CN4CCOCC4=O)c(C=O)nc32)ncc1C#N (stereo partly drawn) [Example 61, N-(5-Cyano-4-trans-((1,2)-2-methoxycyclobutoxy)pyridin-2-yl)-7-formyl-6-((3-carbonylmorpholino)methyl)-3,4-dihydro-1,8-naphthyridin-1(2H)-carboxamide] | 3.7 | 6.2 | > 10000 | 2 | 2110 | 2120 | 0.75 | 2.96 | 2640 | > 10000 | –
11 | CO[C@H]1CCOCC1Oc1cc(NC(=O)N2CCCc3cc(CN4CCOCC4=O)c(C=O)nc32)ncc1C#N (stereo partly drawn) [Example 68, N-(5-Cyano-4-(((3,4)-trans-4-methoxytetrahydro-2H-pyran-3-yl)oxy)pyridin-2-yl) -7-formyl-6-((3-carbonylmorpholino)methyl)-3,4-dihydro-1,8-naphthyridin-1(2H)-carboxamide] | – | 40.8 | > 10000 | – | – | – | – | – | – | > 10000 | 10.9
